Experimental data from ChEMBL document CHEMBL2016493, “Design, synthesis, synergistic antimicrobial activity and cytotoxicity of 4-aryl substituted 3,4-dihydropyrimidinones of curcumin” (Bioorg Med Chem Lett, 2012).
The source made the active and inactive calls. No cut-off for these calls is given here.

Key:
[1] = test system: Burkholderia pseudomallei; assay: Antibacterial activity against Burkholderia pseudomallei NTCC 10274 at 20 uM/ml after 24 hrs by kirby-bauer method; type: functional; conditions: NTCC 10274, 24 h, read-out: IZ
[2] = test system: Staphylococcus aureus; assay: Antibacterial activity against Staphylococcus aureus ATCC 11632 at 40 uM/ml after 24 hrs by kirby-bauer method; type: functional
[3] = test system: Burkholderia pseudomallei; assay: Antibacterial activity against Burkholderia pseudomallei NTCC 10274 at 80 uM/ml after 24 hrs by kirby-bauer method; type: functional; conditions: NTCC 10274, 24 h, read-out: IZ
[4] = test system: Burkholderia pseudomallei; assay: Antibacterial activity against Burkholderia pseudomallei NTCC 10274 at 160 uM/ml after 24 hrs by kirby-bauer method; type: functional
[5] = test system: Escherichia coli; assay: Antibacterial activity against Escherichia coli ATCC 35218 at 160 uM/ml after 24 hrs by kirby-bauer method; type: functional; conditions: ATCC 35218, 24 h, read-out: IZ
[6] = test system: Staphylococcus aureus; assay: Antibacterial activity against Staphylococcus aureus ATCC 11632 at 80 uM/ml after 24 hrs by kirby-bauer method; type: functional; conditions: ATCC 11632, 24 h, read-out: IZ
[7] = test system: Escherichia coli; assay: Antibacterial activity against Escherichia coli ATCC 35218 at 80 uM/ml after 24 hrs by kirby-bauer method; type: functional; conditions: ATCC 35218, 24 h, read-out: IZ
[8] = test system: Salmonella typhimurium; assay: Antibacterial activity against Salmonella typhimurium ATCC 23564 at 20 uM/ml after 24 hrs by kirby-bauer method; type: functional, Salmonella enterica subsp. enterica serovar Typhimurium
[9] = test system: Burkholderia pseudomallei; assay: Antibacterial activity against Burkholderia pseudomallei NTCC 10274 at 40 uM/ml after 24 hrs by kirby-bauer method; type: functional; conditions: NTCC 10274, 24 h, read-out: IZ
[10] = test system: Salmonella typhimurium; assay: Antibacterial activity against Salmonella typhimurium ATCC 23564 at 40 uM/ml after 24 hrs by kirby-bauer method; type: functional, Salmonella enterica subsp. enterica serovar Typhimurium
[11] = test system: Escherichia coli; assay: Antibacterial activity against Escherichia coli ATCC 35218 at 40 uM/ml after 24 hrs by kirby-bauer method; type: functional; conditions: ATCC 35218, 24 h, read-out: IZ
[12] = test system: Escherichia coli; assay: Antibacterial activity against Escherichia coli ATCC 35218 at 20 uM/ml after 24 hrs by kirby-bauer method; type: functional; conditions: ATCC 35218, 24 h, read-out: IZ
[13] = test system: Pseudomonas aeruginosa; assay: Antibacterial activity against Pseudomonas aeruginosa ATCC 15499 at 80 uM/ml after 24 hrs by kirby-bauer method; type: functional
[14] = test system: Salmonella typhimurium; assay: Antibacterial activity against Salmonella typhimurium ATCC 23564 at 80 uM/ml after 24 hrs by kirby-bauer method; type: functional, Salmonella enterica subsp. enterica serovar Typhimurium; conditions: Salmonella enterica, ATCC 23564, 24 h; read-out: IZ
[15] = test system: Pseudomonas aeruginosa; assay: Antibacterial activity against Pseudomonas aeruginosa ATCC 15499 at 20 uM/ml after 24 hrs by kirby-bauer method; type: functional
[16] = test system: Staphylococcus aureus; assay: Antibacterial activity against Staphylococcus aureus ATCC 11632 at 160 uM/ml after 24 hrs by kirby-bauer method; type: functional; conditions: ATCC 11632, 24 h, read-out: IZ
[17] = test system: Pseudomonas aeruginosa; assay: Antibacterial activity against Pseudomonas aeruginosa ATCC 15499 at 40 uM/ml after 24 hrs by kirby-bauer method; type: functional
[18] = test system: Salmonella typhimurium; assay: Antibacterial activity against Salmonella typhimurium ATCC 23564 at 160 uM/ml after 24 hrs by kirby-bauer method; type: functional, Salmonella enterica subsp. enterica serovar Typhimurium; conditions: Salmonella enterica, ATCC 23564, 24 h; read-out: IZ
[19] = test system: Staphylococcus aureus; assay: Antibacterial activity against Staphylococcus aureus ATCC 11632 at 20 uM/ml after 24 hrs by kirby-bauer method; type: functional
[20] = test system: Pseudomonas aeruginosa; assay: Antibacterial activity against Pseudomonas aeruginosa ATCC 15499 at 160 uM/ml after 24 hrs by kirby-bauer method; type: functional; conditions: ATCC 15499, 24 h, read-out: IZ
[21] = test system: Trichoderma viride; assay: Antifungal activity against Trichoderma viride MTCC 1107 at 20 uM/ml after 48 hrs by paper disc diffusion method; type: functional; conditions: MTCC 1107, 48 h, read-out: IZ
[22] = test system: Aspergillus flavus; assay: Antifungal activity against Aspergillus flavus MTCC 1021 at 160 uM/ml after 48 hrs by paper disc diffusion method; type: functional
[23] = test system: QG-56; assay: Cytotoxicity against human QG56 cells after 48 hrs by MTT assay; type: functional, cell-based
[24] = test system: Curvularia lunata; assay: Antifungal activity against Curvularia lunata MTCC 581 at 20 uM/ml after 48 hrs by paper disc diffusion method; type: functional; conditions: MTCC 581, 48 h, read-out: IZ
[25] = test system: Aspergillus niger; assay: Antifungal activity against Aspergillus niger MTCC 1108 at 40 uM/ml after 48 hrs by paper disc diffusion method; type: functional
[26] = test system: Aspergillus niger; assay: Antifungal activity against Aspergillus niger MTCC 1108 at 80 uM/ml after 48 hrs by paper disc diffusion method; type: functional
[27] = test system: Aspergillus niger; assay: Antifungal activity against Aspergillus niger MTCC 1108 at 20 uM/ml after 48 hrs by paper disc diffusion method; type: functional
[28] = test system: Curvularia lunata; assay: Antifungal activity against Curvularia lunata MTCC 581 at 80 uM/ml after 48 hrs by paper disc diffusion method; type: functional; conditions: MTCC 581, 48 h, read-out: IZ
[29] = test system: Trichoderma viride; assay: Antifungal activity against Trichoderma viride MTCC 1107 at 80 uM/ml after 48 hrs by paper disc diffusion method; type: functional; conditions: MTCC 1107, 48 h, read-out: IZ
[30] = test system: Curvularia lunata; assay: Antifungal activity against Curvularia lunata MTCC 581 at 40 uM/ml after 48 hrs by paper disc diffusion method; type: functional; conditions: MTCC 581, 48 h, read-out: IZ
[31] = test system: HCT-116
[32] = test system: HepG2
[33] = test system: Trichoderma viride; assay: Antifungal activity against Trichoderma viride MTCC 1107 at 40 uM/ml after 48 hrs by paper disc diffusion method; type: functional; conditions: MTCC 1107, 48 h, read-out: IZ
[34] = test system: Aspergillus niger; assay: Antifungal activity against Aspergillus niger MTCC 1108 at 160 uM/ml after 48 hrs by paper disc diffusion method; type: functional; conditions: MTCC 1108, 48 h, read-out: IZ
[35] = test system: Trichoderma viride; assay: Antifungal activity against Trichoderma viride MTCC 1107 at 160 uM/ml after 48 hrs by paper disc diffusion method; type: functional; conditions: MTCC 1107, 48 h, read-out: IZ
[36] = test system: Curvularia lunata; assay: Antifungal activity against Curvularia lunata MTCC 581 at 160 uM/ml after 48 hrs by paper disc diffusion method; type: functional; conditions: MTCC 581, 48 h, read-out: IZ
[37] = Salmonella enterica, ATCC 23564, 24 h, read-out: IZ
[38] = Salmonella enterica subsp. enterica serovar Typhimurium

CC1(C)S[C@@H]2[C@H](NC(=O)[C@H](N)c3ccccc3)C(=O)N2[C@H]1C(=O)O [AMPICILLIN]
zone of inhibition at 20 µM [1]: 38 mm | zone of inhibition at 40 µM ([2]; ATCC 11632, 24 h, read-out: IZ): 29 mm | zone of inhibition at 80 µM [3]: 41 mm | zone of inhibition at 160 µM ([4]; NTCC 10274, 24 h, read-out: IZ): 46 mm | zone of inhibition at 160 µM [5]: 34 mm | zone of inhibition at 80 µM [6]: 30 mm | zone of inhibition at 80 µM [7]: 32 mm | zone of inhibition at 20 µM [8, 37]: 37 mm | zone of inhibition at 40 µM [9]: 39 mm | zone of inhibition at 40 µM [10, 37]: 44 mm | zone of inhibition at 40 µM [11]: 30 mm | zone of inhibition at 20 µM [12]: 30 mm | zone of inhibition at 80 µM ([13]; ATCC 15499, 24 h, read-out: IZ): 36 mm | zone of inhibition at 80 µM [14]: 45 mm | zone of inhibition at 20 µM ([15]; ATCC 15499, 24 h, read-out: IZ): 31 mm | zone of inhibition at 160 µM [16]: 37 mm | zone of inhibition at 40 µM ([17]; ATCC 15499, 24 h, read-out: IZ): 34 mm | zone of inhibition at 160 µM [18]: 51 mm | zone of inhibition at 20 µM ([19]; ATCC 11632, 24 h, read-out: IZ): 28 mm | zone of inhibition at 160 µM [20]: 39 mm

COc1cc(/C=C/C(=O)C2=C(/C=C/c3ccc(O)c(OC)c3)NC(=O)NC2c2ccc(Cl)cc2)ccc1O (stereo not drawn)
inhibition zone (IZ) [2]: inactive | zone of inhibition at 20 µM [21]: 15 mm | inhibition zone (IZ) [22]: inactive | IC50 [23]: 100 uM/ml | zone of inhibition at 20 µM [24]: 9 mm | inhibition zone (IZ) [4]: inactive | zone of inhibition at 160 µM [5]: 19 mm | inhibition zone (IZ) [25]: inactive | inhibition zone (IZ) [26]: inactive | inhibition zone (IZ) [27]: inactive | zone of inhibition at 80 µM [6]: 10 mm | zone of inhibition at 80 µM [7]: 16 mm | inhibition zone (IZ) [8, 38]: inactive | zone of inhibition at 80 µM [28]: 18 mm | zone of inhibition at 80 µM [29]: 17 mm | inhibition zone (IZ) [10, 38]: inactive | zone of inhibition at 40 µM [11]: 11 mm | zone of inhibition at 20 µM [12]: 9 mm | inhibition zone (IZ) [13]: inactive | zone of inhibition at 40 µM [30]: 12 mm | IC50 [31]: 100 uM/ml | zone of inhibition at 80 µM [14]: 9 mm | inhibition zone (IZ) [15]: inactive | IC50 [32]: 100 uM/ml | zone of inhibition at 160 µM [16]: 12 mm | zone of inhibition [33]: 17 mm | inhibition zone (IZ) [17]: inactive | zone of inhibition at 160 µM [34]: 12 mm | zone of inhibition at 160 µM [18]: 11 mm | zone of inhibition at 160 µM [35]: 18 mm | zone of inhibition at 160 µM [36]: 22 mm | inhibition zone (IZ) [19]: inactive | zone of inhibition at 160 µM [20]: 9 mm
